{"source": "paper PMC5218480", "about": "(PLoS ONE, 2017)", "system": "MV-4-11 cells", "assay": "Gene expression microarray analysis (Affymetrix PrimeView) and GSEA", "format": "cell-based, human", "set-up": "RFU PODN (11730768_x_at) / Fold change /veh PODN (11730768_x_at) / RFU LINC00158 (11744669_a_at) / Fold change /veh LINC00158 (11744669_a_at) / RFU DUSP10 (11751237_a_at) / Fold change /veh DUSP10 (11751237_a_at) / RFU ID3 (11757404_x_at) / Fold change /veh ID3 (11757404_x_at) / RFU PLEKHG5 (11737974_s_at) / Fold change /veh PLEKHG5 (11737974_s_at) / RFU LRRC4B (11730491_at) / Fold change /veh LRRC4B (11730491_at) / RFU GIMAP4 (11747438_a_at) / Fold change /veh GIMAP4 (11747438_a_at) / RFU KRT8 (11758183_x_at) / Fold change /veh KRT8 (11758183_x_at) / RFU CNN1 (11734310_a_at) / Fold change /veh CNN1 (11734310_a_at) / RFU VPS37D (11726825_at) / Fold change /veh VPS37D (11726825_at) / RFU C10orf10 (11716522_x_at) / Fold change /veh C10orf10 (11716522_x_at) / RFU KIR2DL2 /// KIR2DL4 /// KIR2DL5A /// KIR2DL5B /// KIR2DS1 /// KIR2DS2 /// KIR2DS3 /// KIR2DS4 /// KIR3DL3 /// KIR3DL3 /// KIR3DS1 (11738374_at) / Fold change /veh KIR2DL2 /// KIR2DL4 /// KIR2DL5A /// KIR2DL5B /// KIR2DS1 /// KIR2DS2 /// KIR2DS3 /// KIR2DS4 /// KIR3DL3 /// KIR3DL3 /// KIR3DS1 (11738374_at) / RFU C1QL1 (11718748_at) / Fold change /veh C1QL1 (11718748_at) / RFU TMPRSS4 (11747572_a_at) / Fold change /veh TMPRSS4 (11747572_a_at) / RFU HAMP (11756126_x_at) / Fold change /veh HAMP (11756126_x_at) / RFU RNFT2 (11725882_a_at) / Fold change /veh RNFT2 (11725882_a_at) / RFU NR4A2 (11747474_a_at) / Fold change /veh NR4A2 (11747474_a_at) / RFU ABCC12 (11746883_a_at) / Fold change /veh ABCC12 (11746883_a_at) / RFU TMEM136 (11760407_x_at) / Fold change /veh TMEM136 (11760407_x_at) / RFU CLDN22 /// WWC2 (11732394_at) / Fold change /veh CLDN22 /// WWC2 (11732394_at) / RFU HLA-DPB1 (11760878_x_at) / Fold change /veh HLA-DPB1 (11760878_x_at) / RFU SPINT1 (11716480_a_at) / Fold change /veh SPINT1 (11716480_a_at) / RFU GAP43 (11754022_s_at) / Fold change /veh GAP43 (11754022_s_at) / RFU A4GNT (11735810_at) / Fold change /veh A4GNT (11735810_at) / RFU PRB3 (11715151_x_at) / Fold change /veh PRB3 (11715151_x_at) / RFU TUBB4B (11761932_at) / Fold change /veh TUBB4B (11761932_at) / RFU CAPN14 (11732068_a_at) / Fold change /veh CAPN14 (11732068_a_at) / RFU TMCC2 (11721928_a_at) / Fold change /veh TMCC2 (11721928_a_at) / RFU IRGQ (11745062_a_at) / Fold change /veh IRGQ (11745062_a_at) / RFU FAM174B (11720279_a_at) / Fold change /veh FAM174B (11720279_a_at) / RFU TMPRSS4 (11748680_a_at) / Fold change /veh TMPRSS4 (11748680_a_at) / RFU FAM212B (11763350_a_at) / Fold change /veh FAM212B (11763350_a_at) / RFU PLEKHG5 (11743358_a_at) / Fold change /veh PLEKHG5 (11743358_a_at) / RFU ZSCAN30 (11745921_a_at) / Fold change /veh ZSCAN30 (11745921_a_at) / RFU CMKLR1 (11741424_a_at) / Fold change /veh CMKLR1 (11741424_a_at) / RFU LOC101060620 /// MAPK8IP1 (11723275_at) / Fold change /veh LOC101060620 /// MAPK8IP1 (11723275_at) / RFU SPTSSB (11747773_x_at) / Fold change /veh SPTSSB (11747773_x_at) / RFU PRSS12 (11739890_at) / Fold change /veh PRSS12 (11739890_at) / RFU BIN1 (11741810_x_at) / Fold change /veh BIN1 (11741810_x_at) / RFU WNT11 (11732464_a_at) / Fold change /veh WNT11 (11732464_a_at) / RFU C10orf10 (11716521_a_at) / Fold change /veh C10orf10 (11716521_a_at) / RFU C5orf56 (11738089_at) / Fold change /veh C5orf56 (11738089_at) / RFU CYB561 (11721691_x_at) / Fold change /veh CYB561 (11721691_x_at) / RFU ANKRD19P (11752326_a_at) / Fold change /veh ANKRD19P (11752326_a_at) / RFU OR2T12 /// OR2T33 /// OR2T8 (11738714_s_at) / Fold change /veh OR2T12 /// OR2T33 /// OR2T8 (11738714_s_at) / RFU VCAN (11748164_a_at) / Fold change /veh VCAN (11748164_a_at) / RFU JSRP1 (11732532_at) / Fold change /veh JSRP1 (11732532_at) / RFU KRTAP10-11 (11738290_x_at) / Fold change /veh KRTAP10-11 (11738290_x_at) / RFU MYO3A (11730013_a_at) / Fold change /veh MYO3A (11730013_a_at) / RFU EBF3 (11725865_a_at) / Fold change /veh EBF3 (11725865_a_at) / RFU CAMK2N1 (11719241_x_at) / Fold change /veh CAMK2N1 (11719241_x_at) / RFU C5orf56 (11738088_a_at) / Fold change /veh C5orf56 (11738088_a_at) / RFU OLFML3 (11715873_a_at) / Fold change /veh OLFML3 (11715873_a_at) / RFU LOC100653217 /// NTM (11731650_a_at) / Fold change /veh LOC100653217 /// NTM (11731650_a_at) / RFU MAPK11 (11762145_a_at) / Fold change /veh MAPK11 (11762145_a_at) / RFU FIZ1 (11724087_x_at) / Fold change /veh FIZ1 (11724087_x_at) / RFU OASL (11726364_x_at) / Fold change /veh OASL (11726364_x_at) / RFU SOX15 (11748057_x_at) / Fold change /veh SOX15 (11748057_x_at) / RFU CD79A (11719716_a_at) / Fold change /veh CD79A (11719716_a_at) / RFU HIST1H1D (11736915_at) / Fold change /veh HIST1H1D (11736915_at) / RFU CASKIN2 (11723855_a_at) / Fold change /veh CASKIN2 (11723855_a_at) / RFU LOC730098 (11760151_x_at) / Fold change /veh LOC730098 (11760151_x_at) / RFU OR4N2 (11742367_at) / Fold change /veh OR4N2 (11742367_at) / RFU PRRT2 (11749266_a_at) / Fold change /veh PRRT2 (11749266_a_at) / RFU SNX32 (11753110_a_at) / Fold change /veh SNX32 (11753110_a_at) / RFU CDHR5 (11726645_a_at) / Fold change /veh CDHR5 (11726645_a_at) / RFU RCAN1 (11760418_a_at) / Fold change /veh RCAN1 (11760418_a_at) / RFU FAM167A (11723789_a_at) / Fold change /veh FAM167A (11723789_a_at) / RFU FAM26E (11764081_at) / Fold change /veh FAM26E (11764081_at) / RFU ISYNA1 (11749810_s_at) / Fold change /veh ISYNA1 (11749810_s_at) / RFU ACY1 (11761880_at) / Fold change /veh ACY1 (11761880_at) / RFU 11764098_at / Fold change /veh 11764098_at / RFU SAMD14 (11745864_x_at) / Fold change /veh SAMD14 (11745864_x_at) / RFU NPB (11741838_a_at) / Fold change /veh NPB (11741838_a_at) / RFU TMPRSS6 (11731388_a_at) / Fold change /veh TMPRSS6 (11731388_a_at) / RFU KRTAP10-2 (11738614_at) / Fold change /veh KRTAP10-2 (11738614_at) / RFU ARHGAP8 /// PRR5-ARHGAP8 (11727945_x_at) / Fold change /veh ARHGAP8 /// PRR5-ARHGAP8 (11727945_x_at) / RFU KRTAP5-7 /// NADSYN1 (11734609_at) / Fold change /veh KRTAP5-7 /// NADSYN1 (11734609_at) / RFU RASL12 (11751679_a_at) / Fold change /veh RASL12 (11751679_a_at) / RFU CDKN2B (11736163_a_at) / Fold change /veh CDKN2B (11736163_a_at) / RFU PRF1 (11729649_at) / Fold change /veh PRF1 (11729649_at) / RFU, ZNF638 /// ZNF638-IT1 / Fold change vs veh, ZNF638 /// ZNF638-IT1 / RFU, PANK3 / Fold change vs veh, PANK3 / RFU, SH3YL1 / Fold change vs veh, SH3YL1 / RFU, ZEB2 / Fold change vs veh, ZEB2 / RFU, NRIP1 / Fold change vs veh, NRIP1 / RFU, PTTG1IP / Fold change vs veh, PTTG1IP / RFU, CAPN2 / Fold change vs veh, CAPN2 / RFU, MED14 / Fold change vs veh, MED14 / RFU, SNORA58 / Fold change vs veh, SNORA58 / RFU, C1orf63 / Fold change vs veh, C1orf63 / RFU, LRRFIP1 / Fold change vs veh, LRRFIP1 / RFU, NDUFAF7 / Fold change vs veh, NDUFAF7 / RFU, SLC12A2 / Fold change vs veh, SLC12A2 / RFU, IBTK / Fold change vs veh, IBTK / RFU, ESF1 / Fold change vs veh, ESF1 / Fold change vs veh, TMEM50B / RFU, TAOK1 / Fold change vs veh, TAOK1 / RFU, ACBD3 / Fold change vs veh, ACBD3 / RFU, TMA16 / Fold change vs veh, TMA16 / RFU, RWDD3 / Fold change vs veh, RWDD3 / RFU, BCAT1 / Fold change vs veh, BCAT1 / RFU, EDEM3 / Fold change vs veh, EDEM3 / RFU, TMEM33 / Fold change vs veh, TMEM33 / RFU, WDR75 / Fold change vs veh, WDR75 / RFU, AHCTF1 / Fold change vs veh, AHCTF1 / RFU, TFRC / Fold change vs veh, TFRC / RFU, ZDHHC17 / Fold change vs veh, ZDHHC17 / RFU, NOM1 / Fold change vs veh, NOM1 / RFU, ARL8B / Fold change vs veh, ARL8B / RFU, ZBTB11 / Fold change vs veh, ZBTB11 / RFU, TAMM41 / Fold change vs veh, TAMM41 / RFU, KIAA1704 /// LOC100996395 / Fold change vs veh, KIAA1704 /// LOC100996395 / RFU, ING1 / Fold change vs veh, ING1 / RFU, TRMT61B / Fold change vs veh, TRMT61B / RFU, FUBP3 / Fold change vs veh, FUBP3 / RFU, TP53 / Fold change vs veh, TP53 / RFU, TNKS2 / Fold change vs veh, TNKS2 / RFU, ZFP14 / Fold change vs veh, ZFP14 / RFU, ACTR2 / Fold change vs veh, ACTR2 / RFU, PPP3R1 / Fold change vs veh, PPP3R1 / RFU, PIK3R1 / Fold change vs veh, PIK3R1 / RFU, HNRNPA1 / Fold change vs veh, HNRNPA1 / RFU, RNF170 / Fold change vs veh, RNF170 / RFU, ZNF28 / Fold change vs veh, ZNF28 / RFU, RNGTT / Fold change vs veh, RNGTT / RFU, OGT / Fold change vs veh, OGT / RFU, BRD1 / Fold change vs veh, BRD1 / RFU, MARS / Fold change vs veh, MARS / RFU, ZNF655 / Fold change vs veh, ZNF655 / RFU, FAHD1 / Fold change vs veh, FAHD1 / RFU, BDP1 / Fold change vs veh, BDP1 / RFU, LRRCC1 / Fold change vs veh, LRRCC1 / RFU, ARID1A / Fold change vs veh, ARID1A / RFU, ZNF146 / Fold change vs veh, ZNF146 / RFU, ZNF330 / Fold change vs veh, ZNF330 / RFU, GPN3 / Fold change vs veh, GPN3 / RFU, C9orf123 / Fold change vs veh, C9orf123 / RFU, N4BP2L2 / Fold change vs veh, N4BP2L2 / RFU, ARFIP1 / Fold change vs veh, ARFIP1 / RFU, FAM179B / Fold change vs veh, FAM179B / RFU, BCL10 / Fold change vs veh, BCL10 / RFU, UHRF1BP1L / Fold change vs veh, UHRF1BP1L / RFU, BET1 / Fold change vs veh, BET1 / RFU, CNOT2 / Fold change vs veh, CNOT2 / RFU, ZNF268 / Fold change vs veh, ZNF268 / Fold change vs veh, ZNF507 / RFU, DGCR2 / Fold change vs veh, DGCR2 / RFU, WDSUB1 / Fold change vs veh, WDSUB1 / Fold change vs veh, HSP90B1 /// MIR3652 / RFU, ADSS / Fold change vs veh, ADSS / RFU, GK / Fold change vs veh, GK / RFU, ZNF148 / Fold change vs veh, ZNF148 / RFU, TAF9 / Fold change vs veh, TAF9 / RFU, SLC1A5 / Fold change vs veh, SLC1A5 / RFU, SLMO2 / Fold change vs veh, SLMO2 / RFU, ABCC4 / Fold change vs veh, ABCC4 / RFU, LOC101060439 /// RAP1B / Fold change vs veh, LOC101060439 /// RAP1B / RFU, RFX7 / Fold change vs veh, RFX7 / RFU, GTPBP10 / Fold change vs veh, GTPBP10 / RFU, CNEP1R1 / Fold change vs veh, CNEP1R1 / RFU, BIVM-ERCC5 /// ERCC5 / Fold change vs veh, BIVM-ERCC5 /// ERCC5 / RFU, ILF3 / Fold change vs veh, ILF3 / RFU 11762660_at / Fold change /veh 11762660_at / RFU VCAN (11757783_s_at) / Fold change /veh VCAN (11757783_s_at) / RFU DDX43 (11728927_at) / Fold change /veh DDX43 (11728927_at) / RFU KRT8 (11758188_x_at) / Fold change /veh KRT8 (11758188_x_at) / RFU NKD1 (11759106_at) / Fold change /veh NKD1 (11759106_at) / RFU SRD5A1 (11742802_a_at) / Fold change /veh SRD5A1 (11742802_a_at) / RFU TPSAB1 /// TPSB2 (11721975_s_at) / Fold change /veh TPSAB1 /// TPSB2 (11721975_s_at) / RFU GSTM3 (11746129_a_at) / Fold change /veh GSTM3 (11746129_a_at) / RFU IL23R (11737362_x_at) / Fold change /veh IL23R (11737362_x_at) / RFU TMEM51 (11727254_a_at) / Fold change /veh TMEM51 (11727254_a_at) / RFU PIWIL2 (11732686_x_at) / Fold change /veh PIWIL2 (11732686_x_at) / RFU ORM1 (11744905_x_at) / Fold change /veh ORM1 (11744905_x_at) / RFU CCDC152 (11743942_at) / Fold change /veh CCDC152 (11743942_at) / RFU ECM1 (11717891_a_at) / Fold change /veh ECM1 (11717891_a_at) / RFU IL23R (11748794_a_at) / Fold change /veh IL23R (11748794_a_at) / RFU TNFAIP8L3 (11732012_x_at) / Fold change /veh TNFAIP8L3 (11732012_x_at) / RFU MBOAT4 (11741988_at) / Fold change /veh MBOAT4 (11741988_at) / RFU 11764193_at / Fold change /veh 11764193_at / RFU TMEM53 (11763286_at) / Fold change /veh TMEM53 (11763286_at) / RFU MAGEB2 (11727129_at) / Fold change /veh MAGEB2 (11727129_at) / RFU TMEM200A (11744735_a_at) / Fold change /veh TMEM200A (11744735_a_at) / RFU CCDC152 (11751479_a_at) / Fold change /veh CCDC152 (11751479_a_at) / RFU FAM211A (11726209_a_at) / Fold change /veh FAM211A (11726209_a_at) / RFU RGS16 (11746705_a_at) / Fold change /veh RGS16 (11746705_a_at) / RFU VCAN (11755009_s_at) / Fold change /veh VCAN (11755009_s_at) / RFU RHOB (11743442_s_at) / Fold change /veh RHOB (11743442_s_at) / RFU RGS16 (11720943_a_at) / Fold change /veh RGS16 (11720943_a_at) / RFU RGS16 (11720944_at) / Fold change /veh RGS16 (11720944_at) / RFU, VPS4B / Fold change vs veh, VPS4B / RFU, CREB1 / Fold change vs veh, CREB1 / RFU, DNAJC13 / Fold change vs veh, DNAJC13 / RFU, GNAQ / Fold change vs veh, GNAQ / RFU, CDK5R1 / Fold change vs veh, CDK5R1 / RFU, ZRANB3 / Fold change vs veh, ZRANB3 / RFU, CUL4A / Fold change vs veh, CUL4A / RFU, CCNY / Fold change vs veh, CCNY / RFU, UFL1 / Fold change vs veh, UFL1 / RFU, COG3 / Fold change vs veh, COG3 / RFU, DIAPH2 / Fold change vs veh, DIAPH2 / RFU, SKA2 / Fold change vs veh, SKA2 / RFU, AFF3 / Fold change vs veh, AFF3 / RFU, LMF1 / Fold change vs veh, LMF1 / RFU, IPO11 / Fold change vs veh, IPO11 / RFU, DFFB / Fold change vs veh, DFFB / RFU, FOXP1 / Fold change vs veh, FOXP1 / RFU, CARD8 / Fold change vs veh, CARD8 / RFU, STRN3 / Fold change vs veh, STRN3 / RFU, ADK / Fold change vs veh, ADK / RFU, RASSF2 / Fold change vs veh, RASSF2 / RFU, WIPF1 / Fold change vs veh, WIPF1 / RFU, LARP1B / Fold change vs veh, LARP1B / RFU, RASA1 / Fold change vs veh, RASA1 / RFU, RB1 / Fold change vs veh, RB1 / RFU, PPFIA1 / Fold change vs veh, PPFIA1 / RFU, MAT2A / Fold change vs veh, MAT2A / RFU, CCT5 / Fold change vs veh, CCT5 / RFU, WDR92 / Fold change vs veh, WDR92 / RFU, CUX1 / Fold change vs veh, CUX1 / RFU, TTC7A / Fold change vs veh, TTC7A / RFU, TMEM135 / Fold change vs veh, TMEM135 / RFU, DEPTOR / Fold change vs veh, DEPTOR / RFU, CPM / Fold change vs veh, CPM / RFU, DNAJB6 / Fold change vs veh, DNAJB6 / RFU, CACNA2D3 / Fold change vs veh, CACNA2D3 / RFU, DTX4 / Fold change vs veh, DTX4 / RFU, TFCP2 / Fold change vs veh, TFCP2 / RFU, GMCL1 /// GMCL1P1 / Fold change vs veh, GMCL1 /// GMCL1P1 / RFU, AEBP2 / Fold change vs veh, AEBP2 / RFU, SNHG1 /// SNORD22 /// SNORD25 /// SNORD26 /// SNORD27 /// SNORD28 /// SNORD29 /// SNORD31 / Fold change vs veh, SNHG1 /// SNORD22 /// SNORD25 /// SNORD26 /// SNORD27 /// SNORD28 /// SNORD29 /// SNORD31 / Fold change (Aza/veh), C12orf56 (ProbeSet 11735607_a_at) / Fold change (ACY-1035/veh), C12orf56 (ProbeSet 11735607_a_at) / Fold change (Aza/veh), FGFR1OP (ProbeSet 11751329_s_at) / Fold change (ACY-1035/veh), FGFR1OP (ProbeSet 11751329_s_at) / Fold change (Aza/veh), VPS36 (ProbeSet 11739960_a_at) / Fold change (ACY-1035/veh), VPS36 (ProbeSet 11739960_a_at) / RFU SYPL1 (11715823_x_at) / Fold change /veh SYPL1 (11715823_x_at) / RFU IGFBP7 (11715501_s_at) / Fold change /veh IGFBP7 (11715501_s_at) / RFU REEP3 (11722064_at) / Fold change /veh REEP3 (11722064_at) / RFU IGLL1 (11728026_x_at) / Fold change /veh IGLL1 (11728026_x_at): dose or concentration left out as unconfirmed", "conditions": "MV-4-11 cells, 48 hours", "data": [{"smiles": "Nc1ncn([C@@H]2O[C@H](CO)[C@@H](O)[C@H]2O)c(=O)n1", "note": "[azacitidine]", "values": [{"measurement": "Fold change /veh JSRP1 (11732532_at)", "value": 1.00}]}]}
